Biological target: T1, human Prostaglandin D Synthase (GST2) (Homo sapiens, UniProt O60760)
T1 construct: the open reading frame of human Prostaglandin D Synthase was amplified from cDNA; made in house; host or cells: E. coli TOP10F'
Experiment: Homogeneous biochemical assay of human Prostaglandin D Synthase (GST2) based on its glutathion-S-transferase activity (GSH conjugation to monochlorobimane, fluorescence)
Details: given beside the compound name in Examples 1 to 167; read-out: Potency Range (GST2 IC50)
Description: Homogeneous, Biochemical Assay Monitoring the Activity of Human Prostaglandin D Synthase Based on the Glutathion-S-Transferase Activity of the Enzyme
Prostaglandin D2 synthesis by Prostaglandin D synthase (GST2) requires transfer of Glutathion (GSH) to the substrate, Prostaglandin H2. […] Since the Prostaglandin D2 synthesis is absolutely dependent on the GST activity of the enzyme, assays monitoring the GST activity should allow to identify specific inhibitors of Prostaglandin D2 synthetic activity. The assay principle used is based on enzymatic conjugation of GSH to Monochlorobimane (MCB), that becomes fluorescent upon this chemical modification. Therefore, the enzymatic reaction can be monitored by total fluorescence measurement.
In brief, the open reading frame of human Prostaglandin D Synthase was amplified from cDNA using the primer pair:
This construct allows prokaryotic expression of Prostaglandin D Synthase as fusion protein with a N-terminal hexa-histidine tag, referred to as NHis-Prostaglandin D Synthase.
Expression of NHis-Prostaglandin D Synthase was in E. coli TOP10F′ (Invitrogen, Germany, cat. no. C3030-03). […] When the culture had reached a density corresponding to an A600 of 0.6, an equal volume of room temperature LB/ampicillin was added. […] Cells harvested by centrifugation were resuspended in 50 mM tris(hydroxymethyl)aminomethane hydrochloride pH 7.5 (Tris/HCl, Sigma, cat. no. T5941).
Removal of unbound material was with 100 ml lysis buffer. Elution was with 50 ml of 50 mM Tris/HCl pH 7.5, 300 mM imidazol (Sigma, Germany, cat. no. I2399)/HCl pH 7.5). […] Aliquots were shock frozen in liquid nitrogen and stored at −80° C.
All assay components were diluted in reaction buffer, 50 mM MES/KOH (pH 6.1), 0.7 mM GSH (Sigma, G4251), 2 mM MgCl2 (Sigma, M2670), 0.05% Pluronic F127 (Sigma, P2443), and stored on ice prior to use. Compounds were diluted in 90% DMSO yielding final assay concentrations from the picomolar to three digit micromolar range.
Total fluorescent measurement was carried out with excitation and emission wavelength of 390 and 460 nm, respectively (BMG Fluostar Optima).

T1 sequence (O60760 whole entry): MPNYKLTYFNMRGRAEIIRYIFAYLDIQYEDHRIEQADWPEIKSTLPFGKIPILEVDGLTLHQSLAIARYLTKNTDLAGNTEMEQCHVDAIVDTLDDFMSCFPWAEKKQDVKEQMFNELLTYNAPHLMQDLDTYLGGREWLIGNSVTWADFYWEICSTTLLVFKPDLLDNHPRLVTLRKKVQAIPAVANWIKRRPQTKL

Row | Compound | IC50 [nM]
1 | 4-(3-Fluoro-benzoyl)-piperazine-1-carboxylic acid [4-(2-methyl-thiazol-3-yl)-phenyl]-amide [Compound 29] | 11 to 100
2 | O=C(c1ccccc1)N1CCN(C(=S)Nc2ccc(F)cc2)CC1 [Compound 4, 4-Benzoyl-piperazine-1-carbothioic acid (4-fluoro-phenyl)-amide] | 101 to 1000
3 | Cc1ccc(NC(=S)N2CCN(C(=O)c3ccccc3)CC2)cc1 [Compound 7, 4-Benzoyl-piperazine-1-carbothioic acid p-tolylamide] | 101 to 1000
4 | O=C(c1ccc(F)cc1)N1CCN(C(=S)Nc2ccc(Oc3ccccc3)cc2)CC1 [Compound 9, 4-(4-Fluoro-benzoyl)-piperazine-1-carbothioic acid (4-phenoxy-phenyl)-amide] | 101 to 1000
5 | CN(C)c1ccc(NC(=S)N2CCN(C(=O)c3ccc(F)cc3)CC2)cc1 [Compound 10, 4-(4-Fluoro-benzoyl)-piperazine-1-carbothioic acid (4-dimethylamino-phenyl)-amide] | 101 to 1000
6 | COC(=O)c1ccc(NC(=S)N2CCN(C(=O)c3ccc(F)cc3)CC2)cc1 [Compound 11, 4-{[4-(4-Fluoro-benzoyl)-piperazine-1-carbothioyl]-amino}-benzoic acid methyl ester] | 101 to 1000
7 | COc1ccc(NC(=S)N2CCN(C(=O)c3ccc(F)cc3)CC2)cc1 [Compound 12, 4-(4-Fluoro-benzoyl)-piperazine-1-carbothioic acid (4-methoxy-phenyl)-amide] | 101 to 1000
8 | Cc1ccc(NC(=S)N2CCN(C(=O)c3ccc(F)cc3)CC2)cc1 [Compound 13, 4-(4-Fluoro-benzoyl)-piperazine-1-carbothioic acid p-tolylamide] | 101 to 1000
9 | CN(C)c1ccc(NC(=S)N2CCN(C(=O)c3cccnc3)CC2)cc1 [Compound 14, 4-(Pyridine-3-carbonyl)-piperazine-1-carbothioic acid (4-dimethylamino-phenyl)-amide] | 101 to 1000
10 | O=C(c1cccc(F)n1)N1CCN(C(=S)Nc2ccc(Oc3ccccc3)cc2)CC1 [Compound 17, 4-(6-Fluoro-pyridine-2-carbonyl)-piperazine-1-carbothioic acid (4-phenoxy-phenyl)-amide] | 101 to 1000
11 | O=C(c1cccc(F)n1)N1CCN(C(=S)Nc2ccc(OC(F)F)cc2)CC1 [Compound 18, 4-(6-Fluoro-pyridine-2-carbonyl)-piperazine-1-carbothioic acid (4-difluoromethoxy-phenyl)-amide] | 101 to 1000
12 | O=C(c1cccc(F)n1)N1CCN(C(=S)Nc2ccc(OC(F)(F)F)cc2)CC1 [Compound 19, 4-(6-Fluoro-pyridine-2-carbonyl)-piperazine-1-carbothioic acid (4-trifluoromethoxy-phenyl)-amide] | 101 to 1000
13 | O=C(c1cccc(F)n1)N1CCN(C(=S)Nc2ccc(C(F)(F)F)cc2)CC1 [Compound 20, 4-(6-Fluoro-pyridine-2-carbonyl)-piperazine-1-carbothioic acid (4-trifluoromethyl-phenyl)-amide] | 101 to 1000
14 | O=C(Nc1cc(Cl)nc(Cl)c1)N1CCN(C(=O)c2cccc(F)c2)CC1 [Compound 24, 4-(3-Fluoro-benzoyl)-piperazine-1-carboxylic acid (2,6-dichloro-pyridin-4-yl)-amide] | 101 to 1000
15 | O=C(Nc1cccc(N2CCOCC2)c1)N1CCN(C(=O)c2cccc(F)c2)CC1 [Compound 31, 4-(3-Fluoro-benzoyl)-piperazine-1-carboxylic acid (3-morpholin-4-yl-phenyl)-amide] | 101 to 1000
16 | O=C(Nc1cccc(Br)c1)N1CCN(C(=O)c2cccc(F)c2)CC1 [Compound 32, 4-(3-Fluoro-benzoyl)-piperazine-1-carboxylic acid (3-bromo-phenyl)-amide] | 11 to 100
17 | CCOC(=O)c1ccc(NC(=O)N2CCN(C(=O)c3cccc(F)c3)CC2)cc1 [Compound 33, 4-{[4-(3-Fluoro-benzoyl)-piperazine-1-carbonyl]-amino}-benzoic acid ethyl ester] | 101 to 1000
18 | COC(=O)c1cccc(NC(=O)N2CCN(C(=O)c3cccc(F)c3)CC2)c1 [Compound 34, 3-{[4-(3-Fluoro-benzoyl)-piperazine-1-carbonyl]-amino}-benzoic acid methyl ester] | 11 to 100
19 | N#Cc1cccc(NC(=O)N2CCN(C(=O)c3cccc(F)c3)CC2)c1 [Compound 35, 4-(3-Fluoro-benzoyl)-piperazine-1-carboxylic acid (3-cyano-phenyl)-amide] | 11 to 100
20 | O=C(Nc1cccc([N+](=O)[O-])c1)N1CCN(C(=O)c2cccc(F)c2)CC1 [Compound 36, 4-(3-Fluoro-benzoyl)-piperazine-1-carboxylic acid (3-nitro-phenyl)-amide] | 101 to 1000
21 | O=C(Nc1ccc([N+](=O)[O-])cc1)N1CCN(C(=O)c2cccc(F)c2)CC1 [Compound 37, 4-(3-Fluoro-benzoyl)-piperazine-1-carboxylic acid (4-nitro-phenyl)-amide] | 101 to 1000
22 | O=C(Nc1ccc(N2CCOCC2)c(Cl)c1)N1CCN(C(=O)c2cccc(F)c2)CC1 [Compound 38, 4-(3-Fluoro-benzoyl)-piperazine-1-carboxylic acid (3-chloro-4-morpholin-4-yl-phenyl)-amide] | 11 to 100
23 | O=C(c1cccc(F)n1)N1CCN(C(=S)Nc2ccc(N3CCOCC3)c(F)c2)CC1 [Compound 40, 4-(6-Fluoro-pyridine-2-carbonyl)-piperazine-1-carbothioic acid (3-fluoro-4-morpholin-4-yl-phenyl)-amide] | 101 to 1000
24 | O=C(Nc1ccc(N2CCOCC2)c(F)c1)N1CCN(C(=O)c2cccc(F)c2)CC1 [Compound 41, 4-(3-Fluoro-benzoyl)-piperazine-1-carboxylic acid (3-fluoro-4-morpholin-4-yl-phenyl)-amide] | 11 to 100
25 | O=C(c1ccccc1)c1ccc(NC(=O)N2CCN(C(=O)c3cccc(F)c3)CC2)cc1 [Compound 42, 4-(3-Fluoro-benzoyl)-piperazine-1-carboxylic acid (4-benzoyl-phenyl)-amide] | 11 to 100

More lines, now with the values ahead:

Row | IC50 [nM] | Compound
26 | 1 to 10 | CC(C)(C)c1ccc(NC(=S)N2CCN(C(=O)c3ccccc3)CC2)cc1 [Compound 1, 4-Benzoyl-piperazine-1-carbothioic acid (4-tert-butyl-phenyl)-amide]
27 | 1 to 10 | CN(C)c1ccc(NC(=S)N2CCN(C(=O)c3ccccc3)CC2)cc1 [Compound 2, 4-Benzoyl-piperazine-1-carbothioic acid (4-dimethylamino-phenyl)-amide]
28 | 11 to 100 | O=C(c1ccccc1)N1CCN(C(=S)Nc2ccc([N+](=O)[O-])cc2)CC1 [Compound 3, 4-Benzoyl-piperazine-1-carbothioic acid (4-nitro-phenyl)-amide]
29 | 11 to 100 | O=C(c1ccccc1)N1CCN(C(=S)Nc2cccc3ccccc23)CC1 [Compound 5, 4-Benzoyl-piperazine-1-carbothioic acid naphthalen-1-ylamide]
30 | 11 to 100 | COC(=O)c1ccc(NC(=S)N2CCN(C(=O)c3ccccc3)CC2)cc1 [Compound 6, 4-[(4-Benzoyl-piperazine-1-carbothioyl)-amino]-benzoic acid methyl ester]
31 | 11 to 100 | CC(C)(C)c1ccc(NC(=S)N2CCN(C(=O)c3ccc(F)cc3)CC2)cc1 [Compound 8, 4-(4-Fluoro-benzoyl)-piperazine-1-carbothioic acid (4-tert-butyl-phenyl)-amide]
32 | 11 to 100 | O=C(c1cccc(F)c1)N1CCN(C(=S)Nc2ccc(C(F)(F)F)cc2)CC1 [Compound 23, 4-(3-Fluoro-benzoyl)-piperazine-1-carbothioic acid (4-trifluoromethyl-phenyl)-amide]
33 | 11 to 100 | O=C(Nc1cccc(Oc2ccccc2)c1)N1CCN(C(=O)c2cccc(F)c2)CC1 [Compound 25, 4-(3-Fluoro-benzoyl)-piperazine-1-carboxylic acid (3-phenoxy-phenyl)-amide]
34 | 11 to 100 | O=C(Nc1ccc(Oc2ccccc2)cc1)N1CCN(C(=O)c2cccc(F)c2)CC1 [Compound 26, 4-(3-Fluoro-benzoyl)-piperazine-1-carboxylic acid (4-phenoxy-phenyl)-amide]
35 | 11 to 100 | O=C(Nc1ccc2sccc2c1)N1CCN(C(=O)c2cccc(F)c2)CC1 [Compound 27, 4-(3-Fluoro-benzoyl)-piperazine-1-carboxylic acid benzo[b]thiophen-5-ylamide]
36 | 11 to 100 | O=C(Nc1ccc(-c2cccs2)cc1)N1CCN(C(=O)c2cccc(F)c2)CC1 [Compound 28, 4-(3-Fluoro-benzoyl)-piperazine-1-carboxylic acid (4-thiophen-2-yl-phenyl)-amide]
